Measured values: patent US20230364074A1, “Compounds and Compositions for Disrupting Programmed Ribosomal Frameshifting” (YALE UNIVERSITY, priority 2020, published 2023)
Structures can show the parent of a compound that is named as a salt. Where two headings read alike, the source gives them in different places.

How the values were obtained:
[1] = test system: HEK293T cells; assay: Cell viability in the high-throughput screen (cell nuclei numbers)
Method: HEK293T cells were plated in 384 well plates at the density of 5,000 cells/well. Cells were treated by 10 μM candidate compounds 30 min before transfection of 15 ng mCherry-FSE-GFP(−1) plasmid DNA in each well. 24 hours after transfection, cell nuclei were stained with Hoechst dye. Cell nuclei, mCherry, and GFP signals were imaged using an automated fluorescent microscope with a 10x objective, and the acquired images were quantified using the CellProfiler image analysis package. Cell nuclei numbers were quantified as the metric for cell viability. Mean GFP and RFP intensity values were measured in all transfected cells, and GFP/mCherry mean intensity ratios were quantified as the metric for PRF efficiency. The mCherry-GFP fusion plasmid and the mCherry-FSE-GFP(0) plasmid were used as positive and negative controls for elevated and reduced GFP/mCherry ratios, respectively.

[2] = test system: SARS-CoV-2 FSE (−1 PRF); assay: cells; format: cell-based
[3] = 10 μM compound, cell nuclei numbers
[4] = Severe acute respiratory syndrome coronavirus 2, HEK-293T, 24 h, read-out: PERCENT EFFECT 2 (Decreased GFP/Red ratio)
[5] = Severe acute respiratory syndrome coronavirus 2, HEK-293T, 24 h, read-out: PERCENT EFFECT (Increased GFP/Red Ratio)
[6] = Severe acute respiratory syndrome coronavirus 2, HEK-293T, 24 h; read-out: PERCENT EFFECT 2 (Decreased GFP/Red ratio)
[7] = Severe acute respiratory syndrome coronavirus 2, HEK-293T, 24 h; read-out: PERCENT EFFECT (Increased GFP/Red Ratio)

`Nc1c2ccccc2nc2ccccc12` [AMINACRINE] was tested, and the “PERCENT VIABILITY” value [1, 3] was 24.0%, the inhibition at 10 µM [2, 4] was -39.3% and the activation at 10 µM [2, 5] was 20.3%.

For `CCOC(=O)OC(C)OC1=C(C(=O)Nc2ccccn2)N(C)S(=O)(=O)c2ccccc21` (centres unmarked) [AMPIROXICAM], the “PERCENT VIABILITY” value [1, 3] was 284.3%, the inhibition at 10 µM [2, 6] was -57.1% and the activation at 10 µM [2, 7] was 30.8%.

`CCN(CC)CCNC(=O)c1cc(Br)c(N)cc1OC` [BROMOPRIDE] was tested, and the “PERCENT VIABILITY” value [1, 3] was 113.8%, the inhibition at 10 µM [2, 6] was 65.7% and the activation at 10 µM [2, 7] was -35.5%.

In the case of `COc1cccc2c1C(=O)c1c(O)c3c(c(O)c1C2=O)C[C@@](O)(C(C)=O)C[C@@H]3O[C@H]1C[C@H](N)[C@H](O)[C@H](C)O1` [DAUNORUBICIN], the “PERCENT VIABILITY” value [1, 3] is reported as 15.3%, the “PERCENT VIABILITY” value ([1]; 10 μM compound, cell nuclei numbers, listed as daunorubicin) is reported as 16.18% and the inhibition at 10 µM [2, 6] is reported as 108%.

In the case of `C[C@H]1O[C@@H](n2cc(F)c(=O)[nH]c2=O)[C@H](O)[C@@H]1O` [DOXIFLURIDINE], the “PERCENT VIABILITY” value [1, 3] is reported as 382.9%, the inhibition at 10 µM [2, 6] is reported as -31.7% and the activation at 10 µM [2, 7] is reported as 17.1%.

In the case of `COc1cccc2c1C(=O)c1c(O)c3c(c(O)c1C2=O)C[C@@](O)(C(=O)CO)C[C@@H]3O[C@H]1C[C@H](N)[C@H](O)[C@H](C)O1` [DOXORUBICIN], the “PERCENT VIABILITY” value [1, 3] is reported as 13.3%, the inhibition at 10 µM [2, 6] is reported as 101% and the activation at 10 µM [2, 7] is reported as -54.1%.

`COc1cccc2c1C(=O)c1c(O)c3c(c(O)c1C2=O)C[C@@](O)(C(=O)CO)C[C@@H]3O[C@H]1C[C@H](N)[C@H](O)[C@H](C)O1.Cl` [Doxorubicin Â•HCl] was tested, and the “PERCENT VIABILITY” value [1, 3] was 6.15%, the “PERCENT EFFECT 2 (Decreased GFP/Red ratio)” value [2] was 109.41% and the “PERCENT EFFECT (Increased GFP/Red Ratio)” value [2] was −57.80%.

For `COc1cccc2c1C(=O)c1c(O)c3c(c(O)c1C2=O)C[C@@](O)(C(=O)CO)C[C@@H]3O[C@H]1C[C@H](N)[C@@H](O)[C@H](C)O1` [EPIRUBICIN HYDROCHLORIDE], the “PERCENT VIABILITY” value [1, 3] was 46.3%, the inhibition at 10 µM [2, 6] was 105% and the activation at 10 µM [2, 7] was -56.4%.

In the case of `O=C1OC2(c3ccccc31)c1cc(I)c(O)c(I)c1Oc1c2cc(I)c(O)c1I` [ERYTHROSINE SODIUM], the “PERCENT VIABILITY” value [1, 3] is reported as 100.7%, the inhibition at 10 µM [2, 6] is reported as 105% and the activation at 10 µM [2, 7] is reported as -56.3%.

For `CCCCC(=O)O[C@H]1CC[C@H]2[C@@H]3CCc4cc(O)ccc4[C@H]3CC[C@]12C` [ESTRADIOL VALERATE], the “PERCENT VIABILITY” value [1, 3] was 204.4%, the inhibition at 10 µM [2, 6] was 20.9% and the activation at 10 µM [2, 7] was -10.8%.

In the case of `Cc1cc(-c2ccc(/N=N/c3ccc4c(S(=O)(=O)O)cc(S(=O)(=O)O)c(N)c4c3O)c(C)c2)ccc1/N=N/c1ccc2c(S(=O)(=O)O)cc(S(=O)(=O)O)c(N)c2c1O` [EVANS BLUE], the “PERCENT VIABILITY” value [1, 3] is reported as 159.7%, the inhibition at 10 µM [2, 6] is reported as 31.2% and the activation at 10 µM [2, 7] is reported as -13.6%.

In the case of `CN(C)c1ccc(C(=C2C=CC(=[N+](C)C)C=C2)c2ccc(N(C)C)cc2)cc1` [GENTIAN VIOLET], the “PERCENT VIABILITY” value [1, 3] is reported as 12.5%, the inhibition at 10 µM [2, 6] is reported as 66.6% and the activation at 10 µM [2, 7] is reported as -34.5%.

`CC[n+]1c(-c2ccccc2)c2cc(N)ccc2c2ccc(N)cc21` [HOMIDIUM BROMIDE] was tested, and the “PERCENT VIABILITY” value [1, 3] was 310.9%, the inhibition at 10 µM [2, 6] was 107% and the activation at 10 µM [2, 7] was -58%.

For `CCN(CCO)CCCC(C)Nc1ccnc2cc(Cl)ccc12` (centres unmarked) [HYDROXYCHLOROQUINE SULFATE], the “PERCENT VIABILITY” value [1, 3] was 346.2%, the inhibition at 10 µM [2, 6] was -34.5% and the activation at 10 µM [2, 7] was 18.9%.

With `O=C([O-])c1ccccc1-c1c2cc(Br)c(=O)cc-2oc2[c]([Hg+])c([O-])c(Br)cc12.[Na+].[Na+].[OH-]` [MERBROMIN] the “PERCENT VIABILITY” value [1, 3] was 167.4%, the “PERCENT EFFECT 2 (Decreased GFP/Red ratio)” value [2] was 53.1% and the “PERCENT EFFECT (Increased GFP/Red Ratio)” value [2] was −23.1%.

For `C[C@@H]1O[C@@H](O[C@H]2C[C@@H](O)[C@]3(CO)[C@H]4[C@H](O)C[C@]5(C)[C@@H](C6=CC(=O)OC6)CC[C@]5(O)[C@@H]4CC[C@]3(O)C2)[C@H](O)[C@H](O)[C@H]1O` [Ouabain], the “PERCENT VIABILITY” value [1, 3] was 16.4%, the inhibition at 10 µM [2, 6] was -29.7% and the activation at 10 µM [2, 7] was 15.7%.

For `C[C@@H]1O[C@@H](O[C@@H]2C=C3CC[C@@H]4[C@H](CC[C@]5(C)[C@@H](c6ccc(=O)oc6)CC[C@]45O)[C@@]3(C)CC2)[C@H](O)[C@H](O)[C@H]1O` [PROSCILLARIDIN], the “PERCENT VIABILITY” value [1, 3] was 3.4%, the inhibition at 10 µM [2, 6] was -37.8% and the activation at 10 µM [2, 7] was 16.5%.

For `Cc1cc(/C=C/c2ccc3cc(N(C)C)ccc3[n+]2C)c(C)n1-c1ccccc1` [PYRVINIUM PAMOATE], the “PERCENT VIABILITY” value [1, 3] was 15.1%.

For `NCCNc1ccc(NCCN)c2c1C(=O)c1ccncc1C2=O` [Pixantrone dimaleate, 6,9-bis[(2-aminoethyl)amino]-5H,10H-benzo[g]isoquinoline-5,10-dione], the “PERCENT VIABILITY” value [1, 3] was 120.8%, the inhibition at 10 µM [2, 6] was -29.9% and the activation at 10 µM [2, 7] was 15.8%.

For `CCN(CC)CCCC(C)Nc1c2ccc(Cl)cc2nc2ccc(OC)cc12` (centres unmarked) [QUINACRINE HYDROCHLORIDE], the “PERCENT VIABILITY” value [1, 3] was 147.8%, the inhibition at 10 µM [2, 6] was -40.8% and the activation at 10 µM [2, 7] was 21.1%.

With `Nc1c2c(nc3ccccc13)CCCC2` [TACRINE HYDROCHLORIDE] the “PERCENT VIABILITY” value ([1]; human) was 148.9%, the inhibition at 10 µM [2, 4] was 97.1% and the activation at 10 µM [2, 5] was -50.2%.

With `CC[C@]1(O)C[C@@H]2CN(CCc3c([nH]c4ccccc34)[C@@](C(=O)OC)(c3cc4c(cc3OC)N(C)[C@H]3[C@@](O)(C(N)=O)[C@H](O)[C@]5(CC)C=CCN6CC[C@]43[C@@H]65)C2)C1` [Vindesine Sulfate] the “PERCENT VIABILITY” value [1, 3] was 26.1%, the “PERCENT VIABILITY” value ([1]; 10 μM compound, cell nuclei numbers, listed as Vindesine sulfate) was 21.3% and the activation at 10 µM [2, 7] was 16.8%.

In the case of `CCC1=C[C@@H]2CN(C1)Cc1c([nH]c3ccccc13)[C@@](C(=O)OC)(c1cc3c(cc1OC)N(C)[C@H]1[C@@](O)(C(=O)OC)[C@H](OC(C)=O)[C@]4(CC)C=CCN5CC[C@]31[C@@H]54)C2` [Vinorelbine], the “PERCENT VIABILITY” value [1, 3] is reported as 27.8%, the inhibition at 10 µM [2, 6] is reported as -29.2% and the activation at 10 µM [2, 7] is reported as 15.2%.

With `Cc1cccc(C)c1N=C1NCCCS1` [XYLAZINE] the “PERCENT VIABILITY” value [1, 3] was 196.8%, the inhibition at 10 µM [2, 6] was -52.5% and the activation at 10 µM [2, 7] was 28.9%.

With `CC[C@@]1(O)C[C@H](OC2CC(N(C)C)C(OC3CC(O)C(OC4CCC(=O)C(C)O4)C(C)O3)C(C)O2)c2c(cc3c(c2O)C(=O)c2c(O)cccc2C3=O)[C@H]1C(=O)OC` (stereo partly drawn) [aclarubicin, methyl (1R,2R,4S)-4-[4-dimethylamino-5-[4-hydroxy-6-methyl-5-(6-methyl-5-oxooxan-2-yl)oxyoxan-2-yl]oxy-6-methyloxan-2-yl]oxy-2-ethyl-2,5,7-trihydroxy-6,11-dioxo-3,4-dihydro-1H-tetracene-1-carboxylate] the “PERCENT VIABILITY” value [1, 3] was 52.5%, the “PERCENT VIABILITY” value ([1]; 10 μM compound, cell nuclei numbers, listed as Aclarubicin) was 54.77% and the inhibition at 10 µM [2, 6] was 33.3%.

`CC(=O)[C@]1(N)Cc2c(O)c3c(c(O)c2[C@@H](O[C@H]2C[C@H](O)[C@H](O)CO2)C1)C(=O)c1ccccc1C3=O.Cl` [amrubicin, (7S,9S)-9-acetyl-9-amino-7-[(2S,4S,5R)-4,5-dihydroxyoxan-2-yl]oxy-6,11-dihydroxy-8,10-dihydro-7H-tetracene-5,12-dione hydrochloride] was tested, and the “PERCENT VIABILITY” value ([1]; human) was 111.0%, the inhibition at 10 µM [2, 4] was 50.5% and the activation at 10 µM [2, 5] was -23.7%.

In the case of `COc1cccc2c1C(=O)c1c(O)c3c(c(O)c1C2=O)C[C@@](O)(C(C)=NNC(=O)c1ccccc1)C[C@@H]3O[C@H]1C[C@H](N)[C@H](O)[C@H](C)O1.Cl` [zorubicin, N-[1-[(2S,4S)-4-[(2R,4S,5S,6S)-4-amino-5-hydroxy-6-methyloxan-2-yl]oxy-2,5,12-trihydroxy-7-methoxy-6,11-dioxo-3,4-dihydro-1H-tetracen-2-yl]ethylideneamino]benzamide hydrochloride], the inhibition at 10 µM [2, 4] is reported as 106%.
